The supplement of paper PMC10307832

What was measured:
Assay in all cases: relative viability (nuclei count vs DMSO), 5 days (fraction); higher = more cells survive
Sunitinib = compound: CCN(CC)CCNC(=O)c1c(C)[nH]c(/C=C2\C(=O)Nc3ccc(F)cc32)c1C [Sunitinib]
In short: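 On vehicle-anchored 1536-well plates, lung cancer cell lines held overnight at 37 °C were pinned with five library-drug doses (not always all listed) spaced by √10. With no medium change over 5 days, they were then fixed, permeabilised and Hoechst-stained in one step and imaged at 4×. MetaXpress counted nuclei, and viability is the median across plates of treated-well over vehicle-well nuclei. Acceptance needed control CV below 25% and at least one doubling.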

Sunitinib + Trametinib = compound: CCN(CC)CCNC(=O)c1c(C)[nH]c(/C=C2\C(=O)Nc3ccc(F)cc32)c1C [Sunitinib] + CC(=O)Nc1cccc(-n2c(=O)n(C3CC3)c(=O)c3c(Nc4ccc(I)cc4F)n(C)c(=O)c(C)c32)c1 [Trametinib] (partner 0.02 µM)
In short: (§1)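 Cells from lung cancer lines were seeded into 1536-well plates and, one day later, dosed by pin tool. Treatments were either a single drug or a fixed dose of an anchor drug with five library-drug doses (not always all listed) in √10 steps. After 5 days, nuclei were stained in a one-step fixation (final 0.05% Triton X-100, 1% formaldehyde, 1 ug/ml Hoechst) and counted on 4× images, and relative viability is the treated-to-vehicle nuclei ratio, as the median of duplicate plates.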

Sunitinib + Tozasertib = compound: CCN(CC)CCNC(=O)c1c(C)[nH]c(/C=C2\C(=O)Nc3ccc(F)cc32)c1C [Sunitinib] + Cc1cc(Nc2cc(N3CCN(C)CC3)nc(Sc3ccc(NC(=O)C4CC4)cc3)n2)n[nH]1 [Tozasertib] (partner 0.1 µM)
In short: as §1

Sunitinib + AZD7762 = compound: CCN(CC)CCNC(=O)c1c(C)[nH]c(/C=C2\C(=O)Nc3ccc(F)cc32)c1C [Sunitinib] + NC(=O)Nc1cc(-c2cccc(F)c2)sc1C(=O)N[C@H]1CCCNC1 [AZD7762] (partner 0.2 µM)
In short: as §1

| Cell Line | relative viability (Sunitinib; 0.02 µM) | relative viability (Sunitinib; 0.06325 µM) | relative viability (Sunitinib; 0.2 µM) | relative viability (Sunitinib; 0.6325 µM) | relative viability (Sunitinib + Trametinib; first compound 0.02 µM) | relative viability (Sunitinib + Trametinib; first compound 0.06325 µM) | relative viability (Sunitinib + Trametinib; first compound 0.2 µM) | relative viability (Sunitinib + Trametinib; first compound 0.6325 µM) | relative viability (Sunitinib + Trametinib; first compound 2 µM) | relative viability (Sunitinib + Tozasertib; first compound 0.02 µM) | relative viability (Sunitinib + Tozasertib; first compound 0.06325 µM) | relative viability (Sunitinib + Tozasertib; first compound 0.2 µM) | relative viability (Sunitinib + Tozasertib; first compound 0.6325 µM) | relative viability (Sunitinib + Tozasertib; first compound 2 µM) | relative viability (Sunitinib + AZD7762; first compound 0.02 µM) | relative viability (Sunitinib + AZD7762; first compound 0.06325 µM) | relative viability (Sunitinib + AZD7762; first compound 0.2 µM) | relative viability (Sunitinib + AZD7762; first compound 0.6325 µM) | relative viability (Sunitinib + AZD7762; first compound 2 µM) | relative viability (Sunitinib; 2 µM) |
| --- | --- | --- | --- | --- | --- | --- | --- | --- | --- | --- | --- | --- | --- | --- | --- | --- | --- | --- | --- | --- |
| HARA | 0.966 | 1.16 | 1.03 | 0.987 | 0.599 | 0.976 | 0.841 | 0.943 | 0.707 | 0.105 | 0.148 | 0.216 | 0.076 | 0.0991 | 0.355 | 0.337 | 0.582 | 0.29 | 0.301 |  |
| H3255 | 0.94 | 0.902 |  | 1.02 | 0.611 | 0.658 | 0.652 | 0.614 | 0.597 | 0.763 | 0.879 | 0.785 | 0.73 | 0.654 | 0.968 | 0.888 |  | 0.871 | 0.871 | 0.988 |
| A-427 | 0.981 |  | 1.05 | 1.07 | 0.759 | 0.758 | 0.893 | 0.821 | 0.728 | 0.225 | 0.233 | 0.219 | 0.213 | 0.194 | 0.773 | 0.761 | 0.777 | 0.711 | 0.679 | 1.06 |
| SK-LU-1 | 0.972 | 1.19 | 1.1 | 1.13 | 0.432 | 0.518 | 0.545 | 0.537 | 0.525 | 0.377 | 0.424 | 0.433 | 0.379 | 0.332 |  |  |  |  |  | 0.959 |
| SW 1573 | 0.947 | 1.17 | 1.26 | 1.11 | 0.522 | 0.626 | 0.515 | 0.729 | 0.582 | 0.153 | 0.22 | 0.205 | 0.155 | 0.195 |  |  |  |  |  | 0.905 |
| NCI-H1563 | 0.955 | 1.04 | 0.969 | 0.939 |  |  |  |  |  |  |  |  |  |  |  |  |  |  |  | 0.967 |
| Calu-6 | 0.954 | 1.04 | 1.09 | 1.06 |  |  |  |  |  |  |  |  |  |  |  |  |  |  |  | 1.07 |
| NCI-H2009 | 0.957 | 1.07 | 1.07 | 1.11 | 0.242 | 0.332 | 0.274 | 0.25 | 0.181 | 0.695 | 0.747 | 0.858 | 0.78 | 0.716 |  |  |  |  |  |  |
| NCI-H1299 | 0.99 | 1.07 | 1.04 | 1.04 |  |  |  |  |  |  |  |  |  |  |  |  |  |  |  | 1.08 |
| NCI-H1650 |  | 1.05 | 0.964 | 0.942 | 0.509 | 0.63 | 0.874 | 0.621 | 0.552 | 0.323 | 0.416 | 0.382 | 0.321 | 0.245 |  |  |  |  |  | 0.903 |
| UMC-11 | 0.872 | 1.11 | 1.01 | 0.995 | 0.709 | 0.793 | 0.811 | 0.787 | 0.783 | 0.206 | 0.207 | 0.198 | 0.199 | 0.197 |  |  |  |  |  | 0.937 |
| IA-LM | 0.951 | 0.953 | 1.05 | 1.1 |  |  |  |  |  |  |  |  |  |  |  |  |  |  |  | 1.07 |
| SK-MES-1 | 0.931 | 1.03 | 1.09 | 1.11 | 0.526 | 0.528 | 0.555 | 0.575 | 0.459 | 0.892 |  | 0.979 | 1 |  |  |  |  |  |  | 0.988 |
| NCI-H2023 | 0.874 | 1.09 | 1.07 | 1.03 | 0.425 | 0.615 | 0.614 | 0.454 | 0.444 | 0.304 | 0.301 | 0.382 | 0.239 | 0.181 |  |  |  |  |  | 0.967 |
| NCI-H661 | 0.977 |  | 1 | 1.05 | 0.513 | 0.597 | 0.703 | 0.63 | 0.649 | 0.357 | 0.379 | 0.356 | 0.363 | 0.401 |  |  |  |  |  | 1.03 |
| ABC-1 | 1.03 | 1.23 | 1.06 | 1.02 |  |  |  |  |  | 0.187 | 0.189 | 0.172 | 0.18 | 0.154 | 0.77 | 0.863 | 0.921 | 0.865 | 0.927 | 1.01 |
| NCI-H1703 | 0.616 | 0.257 | 0.315 | 0.216 |  |  |  |  |  |  |  |  |  |  | 0.136 | 0.146 | 0.127 | 0.138 | 0.122 | 0.242 |
| COR-L23 | 0.951 | 1.08 | 1.15 | 1.2 | 0.466 | 0.57 | 0.548 | 0.656 | 0.547 | 0.19 | 0.217 | 0.196 | 0.215 | 0.176 |  |  |  |  |  | 1.1 |
| NCI-H1792 | 0.802 | 1.11 | 1.18 | 0.924 | 0.463 | 0.417 | 0.533 | 0.442 | 0.377 |  |  |  |  |  | 0.503 | 0.847 | 1.02 | 0.835 | 0.512 | 1.02 |
| NCI-H520 | 0.926 | 1.08 | 1.07 | 0.979 | 0.657 | 0.813 | 0.727 | 0.772 | 0.601 | 0.44 | 0.384 | 0.435 | 0.375 | 0.421 |  |  |  |  |  | 0.912 |
| COR-L 105 | 0.876 | 1.05 | 0.952 |  | 0.45 | 0.465 | 0.452 | 0.469 | 0.44 | 0.365 | 0.378 | 0.371 | 0.401 | 0.41 |  |  |  |  |  | 0.889 |
| NCI-H2228 | 1.02 | 1.21 | 1.07 | 0.973 | 0.574 | 0.568 | 0.593 | 0.558 | 0.285 | 0.23 | 0.266 | 0.279 | 0.207 | 0.223 |  |  |  |  |  | 0.962 |
